# Source: patent US20220226392A1, “COMPOSITIONS AND PROCESS FOR INTEGRATING CELLS INTO EPITHELIUM” (Medizinische Hochschule Hannover, priority 2019, published 2022)
# Legend:
# [1] = test system: uterine human microvascular endothelial cells; conditions: 10 nM 17β-estradiol; cited from earlier work
# [2] = test system: human primary venous endothelial cells; experiment: Loosening and regeneration of a confluent endothelial cell monolayer after contact with 17β-estradiol (phase contrast, anti-VE-cadherin and DAPI staining); assay type: cell-based
# Method: As an example for an endothelium, human primary venous endothelial cells were cultivated in EGM-medium under cell culture conditions until reaching confluence. Then, the medium was removed from this exemplary epithelium and replaced by fresh EGM-medium containing 17β-estradiol in a concentration of 1 μM, 10 μM, 30 μM, 100 μM, or 300 μM. The concentrations of 17β-estradiol are also indicated in the rows of FIG. 1. […] Subsequent to the presence of the 17β-estradiol in medium, this first composition was removed and replaced by EGM-medium without added 17β-estradiol, with subsequent incubation for 4 h under cell culture conditions. The result is depicted in FIG. 1 in column C in phase contrast, and in column D after immunological staining for VE-cadherin as an essential component of adherens junctions between cells, and DAPI staining for nuclei.
# [3] = test system: human primary venous endothelial cells; experiment: Integration of suspended eGFP-expressing iPSC-derived endothelial cells into an endothelial cell layer pre-treated with 17β-estradiol; assay type: cell-based
# Method: A confluent layer of human primary venous endothelial cells cultivated in EGM-medium was used as a representative for endothelium. This endothelial cell layer was contacted with a first composition containing 17β-estradiol in a concentration yielding 100 μM 17β-estradiol in fresh cell culture medium. After incubating this endothelial cell layer under cell culture conditions for 30 min in the presence of 100 μM 17β-estradiol, the medium was removed and replaced by a suspension of iPSC-derived endothelial cells that were genetically manipulated to constitutively express enhanced green fluorescent green protein (eGFP) in EGM-medium without added 17β-estradiol.
# [4] = test system: human umbilical vein endothelial cells; conditions: 10 nM 17β-estradiol; cited from earlier work
structure (smiles),measurement,setting,value
C[C@]12CC[C@@H]3c4ccc(O)cc4CC[C@H]3[C@@H]1CC[C@@H]2O [17β-estradiol],permeability for FITC-labelled dextran of monolayer,[1],increases the permeability
same,"concentration at which the endothelial layer was loosened, respectively shows disintegration","[2]; 30 min in EGM-medium, tested 1, 10, 30, 100, 300 μM, FIG. 1 columns A, B",at least 10 μM
same,state of the endothelial layer after removal of 17β-estradiol,"[2]; 4 h incubation in EGM-medium without 17β-estradiol after 30 min exposure, VE-cadherin and DAPI staining, FIG. 1 columns C, D",a closed layer of the endothelial cells is re-established
same,integration of eGFP-labelled endothelial cells of the suspension into the endothelial layer,"[3]; 100 μM 17β-estradiol for 30 min, then 4 h incubation with cell suspension without 17β-estradiol, FIG. 2 column B",efficiently integrate between the original endothelial cells
same,effect on endothelial cell layer and VE-cadherin expression,"[3]; 100 μM 17β-estradiol, 30 min, FIG. 2 column A",loosening of the cell layer and loss of VE-cadherin expression
same,permeability for FITC-labelled dextran of monolayer,[4],increases the permeability
